Reference: patent US7090863B2, “Hypocholesterolemic composition and methods of use” (Inpharma S.A., priority 2001, dated 2006)

System: normocholesterolemic healthy male subjects
Test: Example 1 first phase: plasma lipoprotein variations after 15 days of soy bean proteins, β-sitosterol or their combination
Assay type: in vivo, human
Details: in rapport to post-seven days of stabilisation diet values
From the text: For the first phase, 18 normocholesterolemic healthy male subjects (mean age: 32.5±8 years) have been enrolled. All subjects followed a stabilisation diet period of seven days during which they received some advises concerning their nourishment (according to the American Heart Association recommends), without any radical modification of their diet customs. A dietician monitored the patient dietary pattern trough the “Seven days questionnaire” for all the experimental duration. Patients were imposed to stop any nutritional supplementation. After this period, all subjects ingested for fifteen days 400 mg β-sitosterol two times/day (6 subjects), 1600 mg soy bean proteins two times/day (6 subjects) or a low dosage product containing soy proteins supplemented in β-sitosterol in a rapport 4:1 (offered and patented by Inpharma SA, Lugano, Switzerland), 2 g two times/day (6 subjects).
The hematochemistry measurements have been carried out on venous blood coming from antecubital harm vein, after 12 fasting hours after the stabilisation diet period and at the end. Blood has been collected into tubes […] heparin or other anticoagulant, plasma was immediately separated by high-speed centrifugation at 3500×g for twenty minutes. TC, HDL-C, TG, Glucose, and Uric acid have been determined with standardised enzymatic […] methods (Gaddi et al., 2001). LDL-C plasma level has been estimated with the Friedewald's formula [LDL-C=TC-(TG/5+HDL-C)], for TG<350 mg/dL.
Data have been sampled in a specific database and analysed with the help of the SPSS 8.0 statistical software. A normality Shapiro-Wilks test has been carried out on all the tested variables, followed by ANOVA and two-tails t-test for paired samples, when possible, and by a post-hoc Tukey's test. Percentages have been compared with the Fisher's exact test. Correlation degree between baseline plasma lipid levels and reduction obtained with the treatment were estimated with a Pearson's bivariate correlation test followed by linear regression. For all tests a “p” level less than 0.05 has been considered as significant.

`CC[C@H](CC[C@@H](C)[C@H]1CC[C@H]2[C@@H]3CC=C4C[C@@H](O)CC[C@]4(C)[C@H]3CC[C@]12C)C(C)C` [β-sitosterol] was tested, and the “Apolipoprotein Al variation” value was −0.1%, the “Apolipoprotein B variation” value was −0.3% and the “High Density Lipoproteins variation” value was “+0.3%”. For the same molecule, the “Low Density Lipoproteins variation” value was −4.9%, the “Total Cholesterol variation” value was −3.2% and the Tryglycerides variation was −0.1%. For the same molecule, the “Very Low Density Lipoproteins variation” value was −0.2%.
